Experimental data taken from publication PMC3242598, “Phase I study of BIBF 1120 with docetaxel and prednisone in metastatic chemo-naive hormone-refractory prostate cancer patients” (British Journal of Cancer, 2011).

System: patients with metastatic, chemo-naive, hormone-refractory prostate cancer (HRPC)
Experiment: Phase I safety analysis: adverse events graded by CTCAE version 3.0
Assay type: in vivo, human
Settings: for Dyspepsia: patients with drug-related AE / Dysphonia: patients with drug-related AE / Elevated ALT: patients with drug-related AE / Elevated AST: patients with drug-related AE / Elevated GGT: patients with drug-related AE / Elevated alkaline phosphatase: patients with drug-related AE / Epistasis: patients with drug-related AE / Headache: patients with drug-related AE / Hot flush: patients with drug-related AE / Mucosal inflammation: patients with drug-related AE / Muscle spasm: patients with drug-related AE / Nausea: patients with drug-related AE / Neuropathy: patients with drug-related AE / Pyrexia: patients with drug-related AE / Rash: patients with drug-related AE / Upper abdominal pain: patients with drug-related AE / Vomiting: patients with drug-related AE / Weight decrease: patients with drug-related AE / Ageusia: patients with drug-related AE / Alopecia: patients with drug-related AE / Anorexia: patients with drug-related AE / Asthenia: patients with drug-related AE / Constipation: patients with drug-related AE / Diarrhoea: patients with drug-related AE / Dysgeusia: patients with drug-related AE: all courses
Description: On days 2–21 (21-day cycle), patients took an oral dose of BIBF 1120 twice daily. Patients were instructed to swallow BIBF 1120 with water at the same time every day to ensure a dose interval of ∼12 h. On day 2 of treatment cycles (TCs) 1 and 2, patients only took the morning dose of BIBF 1120, omitting the evening dose to allow PK evaluation. All patients were premedicated with oral corticosteroids (dexamethasone 8 mg per os or methylprednisolone 32 mg per os, at 12 h and 1 h before docetaxel infusion) and subsequently took 5 mg prednisone oral BID throughout the trial. On day 1 of each TC, patients received an IV infusion of 75 mg m^−2 docetaxel administered over 1 h.
All patients who received at least one dose of BIBF 1120 or docetaxel were assessed during the safety analysis. Intensity of AEs was graded according to Common Terminology Criteria for Adverse Events (CTCAE) version 3.0. Objective response was defined as a PSA decline ⩾50% from the baseline value over two consecutive courses and/or tumour response according to RECIST criteria ([Therasse et al, 2000]).

[1] = 200 mg BID (n=3) + docetaxel/prednisone, all grades
[2] = 250 mg BID (n=12) + docetaxel/prednisone, Gr 3/4
[3] = 250 mg BID (n=12) + docetaxel/prednisone, all grades
[4] = Total, all dose levels (n=21) + docetaxel/prednisone, Gr 3/4
[5] = Total, all dose levels (n=21) + docetaxel/prednisone, all grades
[6] = during TC 1, all dose levels 100–250 mg BID + docetaxel/prednisone
[7] = during TC 1, all dose levels + docetaxel/prednisone

COC(=O)c1ccc2c(c1)NC(=O)/C2=C(\Nc1ccc(N(C)C(=O)CN2CCN(C)CC2)cc1)c1ccccc1 [BIBF 1120]
Dyspepsia: patients with drug-related AE [1]: 0 | Dysphonia: patients with drug-related AE [1]: 2 | Elevated ALT: patients with drug-related AE [1]: 0 | Elevated AST: patients with drug-related AE [1]: 0 | Elevated GGT: patients with drug-related AE [1]: 0 | Elevated alkaline phosphatase: patients with drug-related AE [1]: 0 | Epistasis: patients with drug-related AE [1]: 1 | Headache: patients with drug-related AE [1]: 0 | Hot flush: patients with drug-related AE [1]: 1 | Mucosal inflammation: patients with drug-related AE [1]: 0 | Muscle spasm: patients with drug-related AE [1]: 0 | Nausea: patients with drug-related AE [1]: 2 | Neuropathy: patients with drug-related AE [1]: 0 | Pyrexia: patients with drug-related AE [1]: 0 | Rash: patients with drug-related AE [1]: 0 | Upper abdominal pain: patients with drug-related AE [1]: 0 | Vomiting: patients with drug-related AE [1]: 2 | Weight decrease: patients with drug-related AE [1]: 0 | Patients with grade 3 diarrhoea (200 mg BID + docetaxel/prednisone, TC 1): One | Ageusia: patients with drug-related AE [2]: 0 | Alopecia: patients with drug-related AE [2]: 0 | Anorexia: patients with drug-related AE [2]: 0 | Asthenia: patients with drug-related AE [2]: 0 | Constipation: patients with drug-related AE [2]: 0 | Diarrhoea: patients with drug-related AE [2]: 0 | Dysgeusia: patients with drug-related AE [2]: 0 | Dyspepsia: patients with drug-related AE [2]: 0 | Dysphonia: patients with drug-related AE [2]: 0 | Elevated ALT: patients with drug-related AE [2]: 2 | Elevated AST: patients with drug-related AE [2]: 2 | Elevated GGT: patients with drug-related AE [2]: 2 | Elevated alkaline phosphatase: patients with drug-related AE [2]: 0 | Epistasis: patients with drug-related AE [2]: 0 | Headache: patients with drug-related AE [2]: 0 | Hot flush: patients with drug-related AE [2]: 0 | Mucosal inflammation: patients with drug-related AE [2]: 0 | Muscle spasm: patients with drug-related AE [2]: 0 | Nausea: patients with drug-related AE [2]: 0 | Neuropathy: patients with drug-related AE [2]: 0 | Pyrexia: patients with drug-related AE [2]: 0 | Rash: patients with drug-related AE [2]: 0 | Upper abdominal pain: patients with drug-related AE [2]: 0 | Vomiting: patients with drug-related AE [2]: 0 | Weight decrease: patients with drug-related AE [2]: 0 | Ageusia: patients with drug-related AE [3]: 1 | Alopecia: patients with drug-related AE [3]: 4 | Anorexia: patients with drug-related AE [3]: 3 | Asthenia: patients with drug-related AE [3]: 10 | Constipation: patients with drug-related AE [3]: 2 | Diarrhoea: patients with drug-related AE [3]: 8 | Dysgeusia: patients with drug-related AE [3]: 2 | Dyspepsia: patients with drug-related AE [3]: 1 | Dysphonia: patients with drug-related AE [3]: 1 | Elevated ALT: patients with drug-related AE [3]: 4 | Elevated AST: patients with drug-related AE [3]: 3 | Elevated GGT: patients with drug-related AE [3]: 3 | Elevated alkaline phosphatase: patients with drug-related AE [3]: 2 | Epistasis: patients with drug-related AE [3]: 3 | Headache: patients with drug-related AE [3]: 0 | Hot flush: patients with drug-related AE [3]: 1 | Mucosal inflammation: patients with drug-related AE [3]: 2 | Muscle spasm: patients with drug-related AE [3]: 2 | Nausea: patients with drug-related AE [3]: 5 | Neuropathy: patients with drug-related AE [3]: 1 | Pyrexia: patients with drug-related AE [3]: 1 | Rash: patients with drug-related AE [3]: 2 | Upper abdominal pain: patients with drug-related AE [3]: 3 | Vomiting: patients with drug-related AE [3]: 3 | Weight decrease: patients with drug-related AE [3]: 1 | Patients with CTCAE grade 3/4 liver enzyme (transaminase) elevations, of twelve (250 mg BID, any TC, based on laboratory values): six | Patients with CTCAE grade 3/4 increases in hepatic enzymes (250 mg BID, entire treatment period): 50% | Ageusia: patients with drug-related AE [4]: 0 | Alopecia: patients with drug-related AE [4]: 0 | Anorexia: patients with drug-related AE [4]: 0 | Asthenia: patients with drug-related AE [4]: 0 | Constipation: patients with drug-related AE [4]: 0 | Diarrhoea: patients with drug-related AE [4]: 2 | Dysgeusia: patients with drug-related AE [4]: 0 | Dyspepsia: patients with drug-related AE [4]: 0 | Dysphonia: patients with drug-related AE [4]: 0 | Elevated ALT: patients with drug-related AE [4]: 2 | Elevated AST: patients with drug-related AE [4]: 2 | Elevated GGT: patients with drug-related AE [4]: 2 | Elevated alkaline phosphatase: patients with drug-related AE [4]: 0 | Epistasis: patients with drug-related AE [4]: 0 | Headache: patients with drug-related AE [4]: 0 | Hot flush: patients with drug-related AE [4]: 0 | Mucosal inflammation: patients with drug-related AE [4]: 0 | Muscle spasm: patients with drug-related AE [4]: 0 | Nausea: patients with drug-related AE [4]: 0 | Neuropathy: patients with drug-related AE [4]: 0 | Pyrexia: patients with drug-related AE [4]: 0 | Rash: patients with drug-related AE [4]: 0 | Upper abdominal pain: patients with drug-related AE [4]: 0 | Vomiting: patients with drug-related AE [4]: 0 | Weight decrease: patients with drug-related AE [4]: 0 | Ageusia: patients with drug-related AE [5]: 2 | Alopecia: patients with drug-related AE [5]: 4 | Anorexia: patients with drug-related AE [5]: 6 | Asthenia: patients with drug-related AE [5]: 14 | Constipation: patients with drug-related AE [5]: 3 | Diarrhoea: patients with drug-related AE [5]: 13 | Dysgeusia: patients with drug-related AE [5]: 3 | Dyspepsia: patients with drug-related AE [5]: 2 | Dysphonia: patients with drug-related AE [5]: 4 | Elevated ALT: patients with drug-related AE [5]: 4 | Elevated AST: patients with drug-related AE [5]: 3 | Elevated GGT: patients with drug-related AE [5]: 3 | Elevated alkaline phosphatase: patients with drug-related AE [5]: 2 | Epistasis: patients with drug-related AE [5]: 5 | Headache: patients with drug-related AE [5]: 2 | Hot flush: patients with drug-related AE [5]: 2 | Mucosal inflammation: patients with drug-related AE [5]: 2 | Muscle spasm: patients with drug-related AE [5]: 2 | Nausea: patients with drug-related AE [5]: 9 | Neuropathy: patients with drug-related AE [5]: 2 | Pyrexia: patients with drug-related AE [5]: 2 | Rash: patients with drug-related AE [5]: 2 | Upper abdominal pain: patients with drug-related AE [5]: 4 | Vomiting: patients with drug-related AE [5]: 5 | Weight decrease: patients with drug-related AE [5]: 2 | Alopecia, frequency of AE irrespective of relatedness (all TCs and doses): 23.8% | Asthenia, frequency of AE irrespective of relatedness (all TCs and doses): 95.2% | Diarrhoea, frequency of AE irrespective of relatedness (all TCs and doses): 85.7% | Nausea, frequency of AE irrespective of relatedness (all TCs and doses): 28.6% | Alopecia, frequency of drug-related AE [6]: 23.8% | Asthenia, frequency of drug-related AE [6]: 61.9% | Nausea, frequency of drug-related AE [6]: 28.6% | Vomiting, frequency of drug-related AE [6]: 28.6% | Patients with AE severity grade 1 [7]: 28.6% | Patients with AE severity grade 2 [7]: 28.6% | Patients with AE severity grade 3 [7]: 23.8% | Patients with AE severity grade 4 (neutropenia only, considered related to docetaxel) [7]: 14.3%
